Laboratory results published in ChEMBL document CHEMBL4229455, “Synthesis and anticancer activity of novel bisindolylhydroxymaleimide derivatives with potent GSK-3 kinase inhibition” (Bioorg Med Chem, 2018).

How the values were obtained:
Assay type in all cases: functional
[1] = tested on: Hs-578T; test: Cytotoxicity against human Hs 578T cells assessed as cell growth at 1 uM after 48 hrs by SRB assay relative to control; conditions: read-out: Activity
[2] = tested on: A549; test: Cytotoxicity against human A549 cells after 48 hrs by SRB assay; conditions: A549, 48 h; for CC50: read-out: LC50 (the source's name)
[3] = tested on: UACC-257; test: Cytotoxicity against human UACC257 cells assessed as cell growth at 0.1 uM after 48 hrs by SRB assay relative to control; conditions: UACC-257, 48 h, read-out: Activity
[4] = tested on: NCI-H226; test: Cytotoxicity against human NCI-H226 cells assessed as cell growth at 1 uM after 48 hrs by SRB assay relative to control; conditions: NCI-H226, 48 h, read-out: Activity
[5] = tested on: MOLT-4; test: Cytotoxicity against human MOLT4 cells assessed as cell growth at 0.1 uM after 48 hrs by SRB assay relative to control; conditions: MOLT-4, 48 h, read-out: Activity
[6] = tested on: UO-31; test: Cytotoxicity against human UO31 cells assessed as cell growth at 1 uM after 48 hrs by SRB assay relative to control; conditions: UO-31, 48 h, read-out: Activity
[7] = tested on: MOLT-4; test: Cytotoxicity against human MOLT4 cells assessed as cell growth at 1 uM after 48 hrs by SRB assay relative to control; conditions: MOLT-4, 48 h, read-out: Activity
[8] = tested on: HOP-62; test: Cytotoxicity against human HOP62 cells assessed as cell growth at 1 uM after 48 hrs by SRB assay relative to control; conditions: HOP-62, 48 h, read-out: Activity
[9] = tested on: PC-3; test: Cytotoxicity against human PC3 cells after 48 hrs by SRB assay; conditions: PC-3, 48 h
[10] = tested on: HL-60(TB); test: Cytotoxicity against human HL-60(TB) cells assessed as cell growth at 100 uM after 48 hrs by SRB assay relative to control; conditions: HL-60, 48 h, read-out: Activity
[11] = tested on: KM12; test: Cytotoxicity against human KM12 cells assessed as cell growth at 1 uM after 48 hrs by SRB assay relative to control; conditions: KM12, 48 h, read-out: Activity
[12] = tested on: HCC 2998; test: Cytotoxicity against human HCC2998 cells assessed as cell growth at 0.01 uM after 48 hrs by SRB assay relative to control; conditions: HCC 2998, 48 h, read-out: Activity
[13] = tested on: A498; test: Cytotoxicity against human A498 cells after 48 hrs by SRB assay; conditions: A498, 48 h
[14] = tested on: SN12C; test: Cytotoxicity against human SN12C cells assessed as cell growth at 100 uM after 48 hrs by SRB assay relative to control; conditions: read-out: Activity
[15] = tested on: PC-3; test: Cytotoxicity against human PC3 cells assessed as cell growth at 0.1 uM after 48 hrs by SRB assay relative to control; conditions: PC-3, 48 h, read-out: Activity
[16] = tested on: IGROV-1; test: Cytotoxicity against human IGROV1 cells assessed as cell growth at 100 uM after 48 hrs by SRB assay relative to control; conditions: IGROV-1, 48 h, read-out: Activity
[17] = tested on: SNB-75; test: Cytotoxicity against human SNB75 cells assessed as cell growth at 0.1 uM after 48 hrs by SRB assay relative to control; conditions: SNB-75, 48 h, read-out: Activity
[18] = tested on: UACC-257; test: Cytotoxicity against human UACC257 cells assessed as cell growth at 100 uM after 48 hrs by SRB assay relative to control; conditions: UACC-257, 48 h, read-out: Activity
[19] = tested on: SK-MEL-5; test: Cytotoxicity against human SK-MEL-5 cells assessed as cell growth at 0.01 uM after 48 hrs by SRB assay relative to control; conditions: SK-MEL-5, 48 h, read-out: Activity
[20] = tested on: HOP-62; test: Cytotoxicity against human HOP62 cells assessed as cell growth at 100 uM after 48 hrs by SRB assay relative to control; conditions: HOP-62, 48 h, read-out: Activity
[21] = tested on: 786-0; test: Cytotoxicity against human 786-O cells assessed as cell growth at 0.01 uM after 48 hrs by SRB assay relative to control; conditions: 786-0, 48 h, read-out: Activity
[22] = tested on: NCI/ADR-RES; test: Cytotoxicity against human NCI-ADR-RES cells after 48 hrs by SRB assay; conditions: for CC50: read-out: LC50 (the source's name)
[23] = tested on: MDA-MB-435; test: Cytotoxicity against human MDA-MB-435 cells after 48 hrs by SRB assay; conditions: MDA-MB-435, 48 h
[24] = tested on: A498; test: Cytotoxicity against human A498 cells assessed as cell growth at 0.01 uM after 48 hrs by SRB assay relative to control; conditions: A498, 48 h, read-out: Activity
[25] = tested on: MDA-MB-468; test: Cytotoxicity against human MDA-MB-468 cells assessed as cell growth at 100 uM after 48 hrs by SRB assay relative to control; conditions: MDA-MB-468, 48 h, read-out: Activity
[26] = tested on: MDA-MB-435; test: Cytotoxicity against human MDA-MB-435 cells assessed as cell growth at 100 uM after 48 hrs by SRB assay relative to control; conditions: MDA-MB-435, 48 h, read-out: Activity
[27] = tested on: HCC 2998; test: Cytotoxicity against human HCC2998 cells after 48 hrs by SRB assay; conditions: HCC 2998, 48 h
[28] = tested on: SK-MEL-5; test: Cytotoxicity against human SK-MEL-5 cells assessed as cell growth at 100 uM after 48 hrs by SRB assay relative to control; conditions: SK-MEL-5, 48 h, read-out: Activity
[29] = tested on: SK-OV-3; test: Cytotoxicity against human SKOV3 cells assessed as cell growth at 0.1 uM after 48 hrs by SRB assay relative to control; conditions: SK-OV-3, 48 h, read-out: Activity
[30] = tested on: A549; test: Cytotoxicity against human A549 cells assessed as cell growth at 0.01 uM after 48 hrs by SRB assay relative to control; conditions: A549, 48 h, read-out: Activity
[31] = tested on: T47D; test: Cytotoxicity against human T47D cells assessed as cell growth at 0.1 uM after 48 hrs by SRB assay relative to control; conditions: read-out: Activity
[32] = tested on: CCRF-CEM; test: Cytotoxicity against human CCRF-CEM cells assessed as cell growth at 0.1 uM after 48 hrs by SRB assay relative to control; conditions: read-out: Activity
[33] = tested on: CAKI-1; test: Cytotoxicity against human Caki1 cells assessed as cell growth at 1 uM after 48 hrs by SRB assay relative to control; conditions: CAKI-1, 48 h, read-out: Activity
[34] = tested on: ACHN; test: Cytotoxicity against human ACHN cells assessed as cell growth at 0.1 uM after 48 hrs by SRB assay relative to control; conditions: read-out: Activity
[35] = tested on: IGROV-1; test: Cytotoxicity against human IGROV1 cells assessed as cell growth at 1 uM after 48 hrs by SRB assay relative to control; conditions: IGROV-1, 48 h, read-out: Activity
[36] = tested on: HOP-92; test: Cytotoxicity against human HOP92 cells assessed as cell growth at 1 uM after 48 hrs by SRB assay relative to control; conditions: HOP-92, 48 h, read-out: Activity
[37] = tested on: UO-31; test: Cytotoxicity against human UO31 cells assessed as cell growth at 100 uM after 48 hrs by SRB assay relative to control; conditions: UO-31, 48 h, read-out: Activity

Q: With N#CCCCCCn1cc(C2=C(c3cn(CCCCCC#N)c4ccccc34)C(=O)N(O)C2=O)c2ccccc21 as the molecule, how does the growth at 1 µM [1] read?
A: 88%

Q: What about the GI50 [2] of the same molecule?
A: 10.4 µM

Q: What about the TGI [2] of the same molecule?
A: > 100 µM

Q: What about the CC50 [2] of the same molecule?
A: > 100 µM

Q: What about the growth at 0.1 µM [3] of the same molecule?
A: 100%

Q: And the growth at 1 µM [4]?
A: 89%

Q: And the growth at 0.1 µM [5]?
A: 81%

Q: And the growth at 1 µM [6]?
A: 59%

Q: And the growth at 1 µM [7]?
A: 85%

Q: What about the growth at 1 µM [8] of the same molecule?
A: 83%

Q: What about the GI50 [9] of the same molecule?
A: 3.92 µM

Q: And the LC50 [9]?
A: > 100 µM

Q: And the TGI [9]?
A: 74 µM

Q: What about the growth at 100 µM [10] of the same molecule?
A: -27%

Q: And the growth at 1 µM [11]?
A: 102%

Q: And the growth at 0.01 µM [12]?
A: 98%

Q: And the GI50 [13]?
A: 2360 nM

Q: What about the LC50 [13] of the same molecule?
A: > 100 µM

Q: What about the TGI [13] of the same molecule?
A: 86 µM

Q: What about the growth at 100 µM [14] of the same molecule?
A: 5%

Q: And the growth at 0.1 µM [15]?
A: 88%

Q: What about the growth at 100 µM [16] of the same molecule?
A: -5%

Q: What about the growth at 0.1 µM [17] of the same molecule?
A: 72%

Q: And the growth at 100 µM [18]?
A: -19%

Q: And the growth at 0.01 µM [19]?
A: 99%

Q: And the growth at 100 µM [20]?
A: 4%

Q: And the growth at 0.01 µM [21]?
A: 103%

Q: And the GI50 [22]?
A: 20.4 µM

Q: And the TGI [22]?
A: > 100 µM

Q: What about the CC50 [22] of the same molecule?
A: > 100 µM

Q: What about the GI50 [23] of the same molecule?
A: 2740 nM

Q: What about the LC50 [23] of the same molecule?
A: > 100 µM

Q: What about the TGI [23] of the same molecule?
A: 8.31 µM

Q: And the growth at 0.01 µM [24]?
A: 84%

Q: And the growth at 100 µM [25]?
A: -15%

Q: What about the growth at 100 µM [26] of the same molecule?
A: -27%

Q: And the GI50 [27]?
A: 14.2 µM

Q: What about the LC50 [27] of the same molecule?
A: > 100 µM

Q: What about the TGI [27] of the same molecule?
A: > 100 µM

Q: And the growth at 100 µM [28]?
A: -80%

Q: And the growth at 0.1 µM [29]?
A: 88%

Q: And the growth at 0.01 µM [30]?
A: 100%

Q: And the growth at 0.1 µM [31]?
A: 89%

Q: And the growth at 0.1 µM [32]?
A: 85%

Q: What about the growth at 1 µM [33] of the same molecule?
A: 93%

Q: What about the growth at 0.1 µM [34] of the same molecule?
A: 91%

Q: What about the growth at 1 µM [35] of the same molecule?
A: 104%

Q: And the growth at 1 µM [36]?
A: 109%

Q: And the growth at 100 µM [37]?
A: -1%

Q: For Cn1cc(C2=C(c3cn(C)c4ncccc34)C(=O)NC2=O)c2ccccc21, which growth at 1 µM [1] is on record?
A: 48%

Q: What about the GI50 [2] of the same molecule?
A: 3.49 µM

Q: What about the TGI [2] of the same molecule?
A: 33.2 µM

Q: What about the CC50 [2] of the same molecule?
A: > 100 µM

Q: What about the growth at 0.1 µM [3] of the same molecule?
A: 103%

Q: What about the growth at 1 µM [4] of the same molecule?
A: 86%

Q: And the growth at 0.1 µM [5]?
A: 119%

Q: What about the growth at 1 µM [6] of the same molecule?
A: 75%

Q: What about the growth at 1 µM [7] of the same molecule?
A: 101%

Q: What about the growth at 1 µM [8] of the same molecule?
A: 87%

Q: What about the GI50 [9] of the same molecule?
A: 3.72 µM

Q: And the TGI [9]?
A: 52.9 µM

Q: And the growth at 100 µM [10]?
A: -28%

Q: What about the growth at 1 µM [11] of the same molecule?
A: 82%

Q: And the growth at 0.01 µM [12]?
A: 103%

Q: What about the GI50 [13] of the same molecule?
A: 320 nM

Q: What about the TGI [13] of the same molecule?
A: 2.34 µM

Q: What about the growth at 100 µM [14] of the same molecule?
A: -14%

Q: And the growth at 0.1 µM [15]?
A: 94%

Q: What about the growth at 100 µM [16] of the same molecule?
A: -10%

Q: And the growth at 0.1 µM [17]?
A: 65%

Q: And the growth at 100 µM [18]?
A: -12%

Q: What about the growth at 0.01 µM [19] of the same molecule?
A: 102%

Q: And the growth at 100 µM [20]?
A: -17%

Q: And the growth at 0.01 µM [21]?
A: 99%

Q: What about the GI50 [22] of the same molecule?
A: 5.19 µM

Q: And the TGI [22]?
A: 44 µM

Q: What about the CC50 [22] of the same molecule?
A: > 100 µM

Q: What about the GI50 [23] of the same molecule?
A: 648 nM

Q: What about the TGI [23] of the same molecule?
A: 19.3 µM

Q: What about the growth at 0.01 µM [24] of the same molecule?
A: 76%

Q: What about the growth at 100 µM [25] of the same molecule?
A: -56%

Q: And the growth at 100 µM [26]?
A: -35%

Q: And the GI50 [27]?
A: 4.35 µM

Q: And the TGI [27]?
A: 28.2 µM

Q: And the growth at 100 µM [28]?
A: -94%

Q: What about the growth at 0.1 µM [29] of the same molecule?
A: 102%

Q: What about the growth at 0.01 µM [30] of the same molecule?
A: 99%

Q: What about the growth at 0.1 µM [31] of the same molecule?
A: 100%

Q: What about the growth at 0.1 µM [32] of the same molecule?
A: 81%

Q: And the growth at 1 µM [33]?
A: 54%

Q: And the growth at 0.1 µM [34]?
A: 99%

Q: And the growth at 1 µM [35]?
A: 117%

Q: What about the growth at 1 µM [36] of the same molecule?
A: 76%

Q: And the growth at 100 µM [37]?
A: -17%
